We go through one compound from publication PMC5218480 (PLoS ONE, 2017).

This experiment deals with MV-4-11 cells. Nature of the experiment: Gene expression microarray analysis (Affymetrix PrimeView) and GSEA. It is filed as cell-based, human. The following applies: ProbeSet 11732277_a_at; LIST D. Set-up: RFU PODN (11730768_x_at) / Fold change /veh PODN (11730768_x_at) / RFU LINC00158 (11744669_a_at) / Fold change /veh LINC00158 (11744669_a_at) / RFU DUSP10 (11751237_a_at) / Fold change /veh DUSP10 (11751237_a_at) / RFU ID3 (11757404_x_at) / Fold change /veh ID3 (11757404_x_at) / RFU PLEKHG5 (11737974_s_at) / Fold change /veh PLEKHG5 (11737974_s_at) / RFU LRRC4B (11730491_at) / Fold change /veh LRRC4B (11730491_at) / RFU GIMAP4 (11747438_a_at) / Fold change /veh GIMAP4 (11747438_a_at) / RFU KRT8 (11758183_x_at) / Fold change /veh KRT8 (11758183_x_at) / RFU CNN1 (11734310_a_at) / Fold change /veh CNN1 (11734310_a_at) / RFU VPS37D (11726825_at) / Fold change /veh VPS37D (11726825_at) / RFU C10orf10 (11716522_x_at) / Fold change /veh C10orf10 (11716522_x_at) / RFU KIR2DL2 /// KIR2DL4 /// KIR2DL5A /// KIR2DL5B /// KIR2DS1 /// KIR2DS2 /// KIR2DS3 /// KIR2DS4 /// KIR3DL3 /// KIR3DL3 /// KIR3DS1 (11738374_at) / Fold change /veh KIR2DL2 /// KIR2DL4 /// KIR2DL5A /// KIR2DL5B /// KIR2DS1 /// KIR2DS2 /// KIR2DS3 /// KIR2DS4 /// KIR3DL3 /// KIR3DL3 /// KIR3DS1 (11738374_at) / RFU C1QL1 (11718748_at) / Fold change /veh C1QL1 (11718748_at) / RFU TMPRSS4 (11747572_a_at) / Fold change /veh TMPRSS4 (11747572_a_at) / RFU HAMP (11756126_x_at) / Fold change /veh HAMP (11756126_x_at) / RFU RNFT2 (11725882_a_at) / Fold change /veh RNFT2 (11725882_a_at) / RFU NR4A2 (11747474_a_at) / Fold change /veh NR4A2 (11747474_a_at) / RFU ABCC12 (11746883_a_at) / Fold change /veh ABCC12 (11746883_a_at) / RFU TMEM136 (11760407_x_at) / Fold change /veh TMEM136 (11760407_x_at) / RFU CLDN22 /// WWC2 (11732394_at) / Fold change /veh CLDN22 /// WWC2 (11732394_at) / RFU HLA-DPB1 (11760878_x_at) / Fold change /veh HLA-DPB1 (11760878_x_at) / RFU SPINT1 (11716480_a_at) / Fold change /veh SPINT1 (11716480_a_at) / RFU GAP43 (11754022_s_at) / Fold change /veh GAP43 (11754022_s_at) / RFU A4GNT (11735810_at) / Fold change /veh A4GNT (11735810_at) / RFU PRB3 (11715151_x_at) / Fold change /veh PRB3 (11715151_x_at) / RFU TUBB4B (11761932_at) / Fold change /veh TUBB4B (11761932_at) / RFU CAPN14 (11732068_a_at) / Fold change /veh CAPN14 (11732068_a_at) / RFU TMCC2 (11721928_a_at) / Fold change /veh TMCC2 (11721928_a_at) / RFU IRGQ (11745062_a_at) / Fold change /veh IRGQ (11745062_a_at) / RFU FAM174B (11720279_a_at) / Fold change /veh FAM174B (11720279_a_at) / RFU TMPRSS4 (11748680_a_at) / Fold change /veh TMPRSS4 (11748680_a_at) / RFU FAM212B (11763350_a_at) / Fold change /veh FAM212B (11763350_a_at) / RFU PLEKHG5 (11743358_a_at) / Fold change /veh PLEKHG5 (11743358_a_at) / RFU ZSCAN30 (11745921_a_at) / Fold change /veh ZSCAN30 (11745921_a_at) / RFU CMKLR1 (11741424_a_at) / Fold change /veh CMKLR1 (11741424_a_at) / RFU LOC101060620 /// MAPK8IP1 (11723275_at) / Fold change /veh LOC101060620 /// MAPK8IP1 (11723275_at) / RFU SPTSSB (11747773_x_at) / Fold change /veh SPTSSB (11747773_x_at) / RFU PRSS12 (11739890_at) / Fold change /veh PRSS12 (11739890_at) / RFU BIN1 (11741810_x_at) / Fold change /veh BIN1 (11741810_x_at) / RFU WNT11 (11732464_a_at) / Fold change /veh WNT11 (11732464_a_at) / RFU C10orf10 (11716521_a_at) / Fold change /veh C10orf10 (11716521_a_at) / RFU C5orf56 (11738089_at) / Fold change /veh C5orf56 (11738089_at) / RFU CYB561 (11721691_x_at) / Fold change /veh CYB561 (11721691_x_at) / RFU ANKRD19P (11752326_a_at) / Fold change /veh ANKRD19P (11752326_a_at) / RFU OR2T12 /// OR2T33 /// OR2T8 (11738714_s_at) / Fold change /veh OR2T12 /// OR2T33 /// OR2T8 (11738714_s_at) / RFU VCAN (11748164_a_at) / Fold change /veh VCAN (11748164_a_at) / RFU JSRP1 (11732532_at) / Fold change /veh JSRP1 (11732532_at) / RFU KRTAP10-11 (11738290_x_at) / Fold change /veh KRTAP10-11 (11738290_x_at) / RFU MYO3A (11730013_a_at) / Fold change /veh MYO3A (11730013_a_at) / RFU EBF3 (11725865_a_at) / Fold change /veh EBF3 (11725865_a_at) / RFU CAMK2N1 (11719241_x_at) / Fold change /veh CAMK2N1 (11719241_x_at) / RFU C5orf56 (11738088_a_at) / Fold change /veh C5orf56 (11738088_a_at) / RFU OLFML3 (11715873_a_at) / Fold change /veh OLFML3 (11715873_a_at) / RFU LOC100653217 /// NTM (11731650_a_at) / Fold change /veh LOC100653217 /// NTM (11731650_a_at) / RFU MAPK11 (11762145_a_at) / Fold change /veh MAPK11 (11762145_a_at) / RFU FIZ1 (11724087_x_at) / Fold change /veh FIZ1 (11724087_x_at) / RFU OASL (11726364_x_at) / Fold change /veh OASL (11726364_x_at) / RFU SOX15 (11748057_x_at) / Fold change /veh SOX15 (11748057_x_at) / RFU CD79A (11719716_a_at) / Fold change /veh CD79A (11719716_a_at) / RFU HIST1H1D (11736915_at) / Fold change /veh HIST1H1D (11736915_at) / RFU CASKIN2 (11723855_a_at) / Fold change /veh CASKIN2 (11723855_a_at) / RFU LOC730098 (11760151_x_at) / Fold change /veh LOC730098 (11760151_x_at) / RFU OR4N2 (11742367_at) / Fold change /veh OR4N2 (11742367_at) / RFU PRRT2 (11749266_a_at) / Fold change /veh PRRT2 (11749266_a_at) / RFU SNX32 (11753110_a_at) / Fold change /veh SNX32 (11753110_a_at) / RFU CDHR5 (11726645_a_at) / Fold change /veh CDHR5 (11726645_a_at) / RFU RCAN1 (11760418_a_at) / Fold change /veh RCAN1 (11760418_a_at) / RFU FAM167A (11723789_a_at) / Fold change /veh FAM167A (11723789_a_at) / RFU FAM26E (11764081_at) / Fold change /veh FAM26E (11764081_at) / RFU ISYNA1 (11749810_s_at) / Fold change /veh ISYNA1 (11749810_s_at) / RFU ACY1 (11761880_at) / Fold change /veh ACY1 (11761880_at) / RFU 11764098_at / Fold change /veh 11764098_at / RFU SAMD14 (11745864_x_at) / Fold change /veh SAMD14 (11745864_x_at) / RFU NPB (11741838_a_at) / Fold change /veh NPB (11741838_a_at) / RFU TMPRSS6 (11731388_a_at) / Fold change /veh TMPRSS6 (11731388_a_at) / RFU KRTAP10-2 (11738614_at) / Fold change /veh KRTAP10-2 (11738614_at) / RFU ARHGAP8 /// PRR5-ARHGAP8 (11727945_x_at) / Fold change /veh ARHGAP8 /// PRR5-ARHGAP8 (11727945_x_at) / RFU KRTAP5-7 /// NADSYN1 (11734609_at) / Fold change /veh KRTAP5-7 /// NADSYN1 (11734609_at) / RFU RASL12 (11751679_a_at) / Fold change /veh RASL12 (11751679_a_at) / RFU CDKN2B (11736163_a_at) / Fold change /veh CDKN2B (11736163_a_at) / RFU PRF1 (11729649_at) / Fold change /veh PRF1 (11729649_at) / RFU, ZNF638 /// ZNF638-IT1 / Fold change vs veh, ZNF638 /// ZNF638-IT1 / RFU, PANK3 / Fold change vs veh, PANK3 / RFU, SH3YL1 / Fold change vs veh, SH3YL1 / RFU, ZEB2 / Fold change vs veh, ZEB2 / RFU, NRIP1 / Fold change vs veh, NRIP1 / RFU, PTTG1IP / Fold change vs veh, PTTG1IP / RFU, CAPN2 / Fold change vs veh, CAPN2 / RFU, MED14 / Fold change vs veh, MED14 / RFU, SNORA58 / Fold change vs veh, SNORA58 / RFU, C1orf63 / Fold change vs veh, C1orf63 / RFU, LRRFIP1 / Fold change vs veh, LRRFIP1 / RFU, NDUFAF7 / Fold change vs veh, NDUFAF7 / RFU, SLC12A2 / Fold change vs veh, SLC12A2 / RFU, IBTK / Fold change vs veh, IBTK / RFU, ESF1 / Fold change vs veh, ESF1 / Fold change vs veh, TMEM50B / RFU, TAOK1 / Fold change vs veh, TAOK1 / RFU, ACBD3 / Fold change vs veh, ACBD3 / RFU, TMA16 / Fold change vs veh, TMA16 / RFU, RWDD3 / Fold change vs veh, RWDD3 / RFU, BCAT1 / Fold change vs veh, BCAT1 / RFU, EDEM3 / Fold change vs veh, EDEM3 / RFU, TMEM33 / Fold change vs veh, TMEM33 / RFU, WDR75 / Fold change vs veh, WDR75 / RFU, AHCTF1 / Fold change vs veh, AHCTF1 / RFU, TFRC / Fold change vs veh, TFRC / RFU, ZDHHC17 / Fold change vs veh, ZDHHC17 / RFU, NOM1 / Fold change vs veh, NOM1 / RFU, ARL8B / Fold change vs veh, ARL8B / RFU, ZBTB11 / Fold change vs veh, ZBTB11 / RFU, TAMM41 / Fold change vs veh, TAMM41 / RFU, KIAA1704 /// LOC100996395 / Fold change vs veh, KIAA1704 /// LOC100996395 / RFU, ING1 / Fold change vs veh, ING1 / RFU, TRMT61B / Fold change vs veh, TRMT61B / RFU, FUBP3 / Fold change vs veh, FUBP3 / RFU, TP53 / Fold change vs veh, TP53 / RFU, TNKS2 / Fold change vs veh, TNKS2 / RFU, ZFP14 / Fold change vs veh, ZFP14 / RFU, ACTR2 / Fold change vs veh, ACTR2 / RFU, PPP3R1 / Fold change vs veh, PPP3R1 / RFU, PIK3R1 / Fold change vs veh, PIK3R1 / RFU, HNRNPA1 / Fold change vs veh, HNRNPA1 / RFU, RNF170 / Fold change vs veh, RNF170 / RFU, ZNF28 / Fold change vs veh, ZNF28 / RFU, RNGTT / Fold change vs veh, RNGTT / RFU, OGT / Fold change vs veh, OGT / RFU, BRD1 / Fold change vs veh, BRD1 / RFU, MARS / Fold change vs veh, MARS / RFU, ZNF655 / Fold change vs veh, ZNF655 / RFU, FAHD1 / Fold change vs veh, FAHD1 / RFU, BDP1 / Fold change vs veh, BDP1 / RFU, LRRCC1 / Fold change vs veh, LRRCC1 / RFU, ARID1A / Fold change vs veh, ARID1A / RFU, ZNF146 / Fold change vs veh, ZNF146 / RFU, ZNF330 / Fold change vs veh, ZNF330 / RFU, GPN3 / Fold change vs veh, GPN3 / RFU, C9orf123 / Fold change vs veh, C9orf123 / RFU, N4BP2L2 / Fold change vs veh, N4BP2L2 / RFU, ARFIP1 / Fold change vs veh, ARFIP1 / RFU, FAM179B / Fold change vs veh, FAM179B / RFU, BCL10 / Fold change vs veh, BCL10 / RFU, UHRF1BP1L / Fold change vs veh, UHRF1BP1L / RFU, BET1 / Fold change vs veh, BET1 / RFU, CNOT2 / Fold change vs veh, CNOT2 / RFU, ZNF268 / Fold change vs veh, ZNF268 / Fold change vs veh, ZNF507 / RFU, DGCR2 / Fold change vs veh, DGCR2 / RFU, WDSUB1 / Fold change vs veh, WDSUB1 / Fold change vs veh, HSP90B1 /// MIR3652 / RFU, ADSS / Fold change vs veh, ADSS / RFU, GK / Fold change vs veh, GK / RFU, ZNF148 / Fold change vs veh, ZNF148 / RFU, TAF9 / Fold change vs veh, TAF9 / RFU, SLC1A5 / Fold change vs veh, SLC1A5 / RFU, SLMO2 / Fold change vs veh, SLMO2 / RFU, ABCC4 / Fold change vs veh, ABCC4 / RFU, LOC101060439 /// RAP1B / Fold change vs veh, LOC101060439 /// RAP1B / RFU, RFX7 / Fold change vs veh, RFX7 / RFU, GTPBP10 / Fold change vs veh, GTPBP10 / RFU, CNEP1R1 / Fold change vs veh, CNEP1R1 / RFU, BIVM-ERCC5 /// ERCC5 / Fold change vs veh, BIVM-ERCC5 /// ERCC5 / RFU, ILF3 / Fold change vs veh, ILF3 / RFU 11762660_at / Fold change /veh 11762660_at / RFU VCAN (11757783_s_at) / Fold change /veh VCAN (11757783_s_at) / RFU DDX43 (11728927_at) / Fold change /veh DDX43 (11728927_at) / RFU KRT8 (11758188_x_at) / Fold change /veh KRT8 (11758188_x_at) / RFU NKD1 (11759106_at) / Fold change /veh NKD1 (11759106_at) / RFU SRD5A1 (11742802_a_at) / Fold change /veh SRD5A1 (11742802_a_at) / RFU TPSAB1 /// TPSB2 (11721975_s_at) / Fold change /veh TPSAB1 /// TPSB2 (11721975_s_at) / RFU GSTM3 (11746129_a_at) / Fold change /veh GSTM3 (11746129_a_at) / RFU IL23R (11737362_x_at) / Fold change /veh IL23R (11737362_x_at) / RFU TMEM51 (11727254_a_at) / Fold change /veh TMEM51 (11727254_a_at) / RFU PIWIL2 (11732686_x_at) / Fold change /veh PIWIL2 (11732686_x_at) / RFU ORM1 (11744905_x_at) / Fold change /veh ORM1 (11744905_x_at) / RFU CCDC152 (11743942_at) / Fold change /veh CCDC152 (11743942_at) / RFU ECM1 (11717891_a_at) / Fold change /veh ECM1 (11717891_a_at) / RFU IL23R (11748794_a_at) / Fold change /veh IL23R (11748794_a_at) / RFU TNFAIP8L3 (11732012_x_at) / Fold change /veh TNFAIP8L3 (11732012_x_at) / RFU MBOAT4 (11741988_at) / Fold change /veh MBOAT4 (11741988_at) / RFU 11764193_at / Fold change /veh 11764193_at / RFU TMEM53 (11763286_at) / Fold change /veh TMEM53 (11763286_at) / RFU MAGEB2 (11727129_at) / Fold change /veh MAGEB2 (11727129_at) / RFU TMEM200A (11744735_a_at) / Fold change /veh TMEM200A (11744735_a_at) / RFU CCDC152 (11751479_a_at) / Fold change /veh CCDC152 (11751479_a_at) / RFU FAM211A (11726209_a_at) / Fold change /veh FAM211A (11726209_a_at) / RFU RGS16 (11746705_a_at) / Fold change /veh RGS16 (11746705_a_at) / RFU VCAN (11755009_s_at) / Fold change /veh VCAN (11755009_s_at) / RFU RHOB (11743442_s_at) / Fold change /veh RHOB (11743442_s_at) / RFU RGS16 (11720943_a_at) / Fold change /veh RGS16 (11720943_a_at) / RFU RGS16 (11720944_at) / Fold change /veh RGS16 (11720944_at) / RFU, VPS4B / Fold change vs veh, VPS4B / RFU, CREB1 / Fold change vs veh, CREB1 / RFU, DNAJC13 / Fold change vs veh, DNAJC13 / RFU, GNAQ / Fold change vs veh, GNAQ / RFU, CDK5R1 / Fold change vs veh, CDK5R1 / RFU, ZRANB3 / Fold change vs veh, ZRANB3 / RFU, CUL4A / Fold change vs veh, CUL4A / RFU, CCNY / Fold change vs veh, CCNY / RFU, UFL1 / Fold change vs veh, UFL1 / RFU, COG3 / Fold change vs veh, COG3 / RFU, DIAPH2 / Fold change vs veh, DIAPH2 / RFU, SKA2 / Fold change vs veh, SKA2 / RFU, AFF3 / Fold change vs veh, AFF3 / RFU, LMF1 / Fold change vs veh, LMF1 / RFU, IPO11 / Fold change vs veh, IPO11 / RFU, DFFB / Fold change vs veh, DFFB / RFU, FOXP1 / Fold change vs veh, FOXP1 / RFU, CARD8 / Fold change vs veh, CARD8 / RFU, STRN3 / Fold change vs veh, STRN3 / RFU, ADK / Fold change vs veh, ADK / RFU, RASSF2 / Fold change vs veh, RASSF2 / RFU, WIPF1 / Fold change vs veh, WIPF1 / RFU, LARP1B / Fold change vs veh, LARP1B / RFU, RASA1 / Fold change vs veh, RASA1 / RFU, RB1 / Fold change vs veh, RB1 / RFU, PPFIA1 / Fold change vs veh, PPFIA1 / RFU, MAT2A / Fold change vs veh, MAT2A / RFU, CCT5 / Fold change vs veh, CCT5 / RFU, WDR92 / Fold change vs veh, WDR92 / RFU, CUX1 / Fold change vs veh, CUX1 / RFU, TTC7A / Fold change vs veh, TTC7A / RFU, TMEM135 / Fold change vs veh, TMEM135 / RFU, DEPTOR / Fold change vs veh, DEPTOR / RFU, CPM / Fold change vs veh, CPM / RFU, DNAJB6 / Fold change vs veh, DNAJB6 / RFU, CACNA2D3 / Fold change vs veh, CACNA2D3 / RFU, DTX4 / Fold change vs veh, DTX4 / RFU, TFCP2 / Fold change vs veh, TFCP2 / RFU, GMCL1 /// GMCL1P1 / Fold change vs veh, GMCL1 /// GMCL1P1 / RFU, AEBP2 / Fold change vs veh, AEBP2 / RFU, SNHG1 /// SNORD22 /// SNORD25 /// SNORD26 /// SNORD27 /// SNORD28 /// SNORD29 /// SNORD31 / Fold change vs veh, SNHG1 /// SNORD22 /// SNORD25 /// SNORD26 /// SNORD27 /// SNORD28 /// SNORD29 /// SNORD31 / Fold change (Aza/veh), C12orf56 (ProbeSet 11735607_a_at) / Fold change (ACY-1035/veh), C12orf56 (ProbeSet 11735607_a_at) / Fold change (Aza/veh), FGFR1OP (ProbeSet 11751329_s_at) / Fold change (ACY-1035/veh), FGFR1OP (ProbeSet 11751329_s_at) / Fold change (Aza/veh), VPS36 (ProbeSet 11739960_a_at) / Fold change (ACY-1035/veh), VPS36 (ProbeSet 11739960_a_at) / RFU SYPL1 (11715823_x_at) / Fold change /veh SYPL1 (11715823_x_at) / RFU IGFBP7 (11715501_s_at) / Fold change /veh IGFBP7 (11715501_s_at) / RFU REEP3 (11722064_at) / Fold change /veh REEP3 (11722064_at) / RFU IGLL1 (11728026_x_at) / Fold change /veh IGLL1 (11728026_x_at): dose or concentration left out as unconfirmed.

Each structure is given as a SMILES string.

As for `Nc1ccc(-c2cccs2)cc1NC(=O)c1ccc2c(c1)cc(C1CC1)n2CCN1CCOCC1` [ACY-1035], the “RFU, FOXP1” value was 575.26 RFU.
